# Where a name gives a salt, the structure may show the parent alone.
# How the values were obtained:
# Assay type in all cases: cell-based, hamster
# [1] = tested on: BHK cells expressing constitutively active H-ras with endogenous K-ras knocked down; test: K-ras knockdown (siRNA) in H-rasG12V cells, pERK Western blotting; conditions: then 6 μg/mL for 48 h
# Protocol: FIG. 7: Illustrates that H-rasG12V signals through endogenous K-ras: BHK cells stably expressing H-rasG12V were treated with vehicle or fendiline HCl (6 μg/mL) for 48 h. (A) ppMEK and ppERK in soluble protein fraction and pAkt levels in membrane protein fraction were measured by quantitative Western blotting. A representative blots are shown. (B) BHK cells stably expressing H-rasG12V were transfected with K-ras siRNA encoding plasmid. 24 h after transfection, cells were treated with vehicle or fendiline HCl (6 μg/mL) for a further 48 h. Whole cell lysates were prepared from serum starved cells and analyzed by quantitative Western blotting. Representative Western blots are shown. Data is shown as mean±SEM from 6 independent experiments. […] (*=p<0.05), and experimentation was performed in accordance with principles described herein;
# BHK cells expressing GFP-tagged H-rasG12V were transfected with the ON-Target K-ras specific siRNA pool or non-targeting control siRNA pool (Dharmacon, Inc., Lafayette, Colo., USA) according to manufacturer's protocol. At 24 h post-transfection, the cells were treated with vehicle or Fendiline HCl; 48 h later (72 h total knockdown time) the cells were lysed for Western blot analysis. […]
# (§1) Quantification of intensities was performed using FluorChemQ software.
# [2] = tested on: BHK cells expressing constitutively active CRaf (FLAG-C-Raf-DD-CAAX); test: Signaling in cells expressing constitutively active CRaf, Western blotting; conditions: 6 μg/mL, 48 h, serum starved BHK cells
# Protocol: FIG. 6: Illustrates that fendiline HCl inhibition occurs at the level of Ras: Whole cell lysates from serum starved BHK cells expressing vector control, FLAG-C-Raf-DD-CAAX or Myc-B-Raf V600E treated with vehicle or fendiline HCl (6 μg/mL) for 48 h were analyzed by quantitative Western blotting. Representative Western blots of c-Raf, pMEK, pERK and Actin (loading control) are shown. Data is shown as mean±SEM from 3-4 independent experiments. Statistical significance was calculated using one way ANOVA and Student's T-test. (*=p<0.05), wherein experimentation was performed in accordance with principles described herein;
# Preparation of whole-cell lysates: cells were lysed in Buffer B (50 mM Tris [pH 7.5], 75 mM NaCl, 25 mM NaF, 5 mM MgCl2, 5 mM EGTA, 1 mM dithiothreitol, 100 μM NaVO4, 1% Nonidet P-40 plus protease inhibitors). Cellular fractionation: cells were incubated in Buffer A (10 mm Tris-HCl, pH 7.5, 25 mm NaF, 5 mm MgCl2, 1 mm EGTA, 1 mm dithiothreitol, 100 μm NaVO4 plus protease inhibitors) for 30 minutes on ice and lysed by passing through a 27 G needle 30 times. The post nuclear supernatant was centrifuged at 100,000 g for 30 minutes and the membrane pellet was resuspended in Buffer A containing 1% Triton X-100.
# as §1
# [3] = target: T1, mGFP-tagged H-rasG12V in BHK cells (Homo sapiens, UniProt P01112, G12V); test: Immuno-electron microscopy and spatial analysis of plasma membrane sheets, H-rasG12V; conditions: 6 μg/mL, 48 h
# T1 construct: BHK cells expressing GFP-tagged full length constitutively active Ras (G12V) proteins; expressed in transfected cells
# Protocol: FIG. 4: Illustrates that fendiline HCl alters plasma membrane association and nanoclustering of K-ras: Plasma membrane sheets were generated from cells expressing GFP-K-rasG12V or GFP-H-rasG12V. Cells were treated with vehicle or fendiline HCl (6 μg/mL) for 48 h. Plasma membrane sheets were labeled with anti-GFP antibody conjugated to 4.5 nm gold. The plasma membrane sheets were imaged in an electron microscope and the spatial distribution of the gold labeling was analyzed using Ripley's K-function. Maximum L(r)-r values above the 99% confidence interval (C.I.) for complete spatial randomness (CSR) indicate clustering at that value of r. […] Significant differences from the control pattern for fendiline treated cells were assessed using bootstrap tests, wherein experimentation was performed in accordance with principles described herein;
# Immuno-EM and spatial analysis were conducted exactly as described previously (Hancock, J. F., and Prior, I. A. (2005). Electron microscopic imaging of Ras signaling domains. Methods 37, 165-172; Prior, I. A., Muncke, C., Parton, R. G., and Hancock, J. F. (2003). Direct visualization of Ras proteins in spatially distinct cell surface microdomains. J Cell Biol 160, 165-170). […] Intact 1-μm^2 areas of the plasma membrane sheet were identified using ImageJ, and the x-y coordinates of the gold particles were determined. […]
smiles,measurement,setting,value
CC(NCCC(c1ccccc1)c1ccccc1)c1ccccc1 (stereo not shown) [fendiline HCl],pERK levels after K-ras knockdown,[1],did not further reduce pERK levels
same,signaling downstream of constitutively active CRaf,[2],had no effect on signaling downstream of constitutively active CRaf
same,clustering of H-rasG12V on plasma membrane,[3],reduced clustering of both K- and H-rasG12V proteins
same,membrane association of H-rasG12V (EM gold labeling),[3],slightly increases membrane association of H-rasG12V

# — US9474730B2, “Methods and compositions for use with K-ras mediated disorders” (Board of Regents of the University of Texas System, priority 2012, dated 2016)
